In brackets after ≈: the same amount, converted by molar mass.
Legend:
[1] = target: M. tuberculosis RNA polymerase core enzyme, M. tuberculosis σ^A (Mycobacterium tuberculosis, UniProt P9WGY7+P9WGY9); assay: Fluorescence-detected RNA polymerase assay, M. tuberculosis RNA polymerase; assay type: biochemical; conditions: read-out: IC50 M. tuberculosis RNAP
[2] = tested on: Acinetobacter baumannii ATCC 19606; assay: MIC, spiral gradient endpoint assay, A. baumannii; assay type: cell-based; conditions: ATCC19606; Acinetobacter baumannii ATCC 19606
[3] = target: E. coli RNA polymerase σ^70 holoenzyme (Escherichia coli, UniProt P0A8T7+P0A8V2); assay: Fluorescence-detected RNA polymerase assay, E. coli RNA polymerase; assay type: biochemical; conditions: read-out: IC50 E. coli RNAP
[4] = tested on: Escherichia coli D21f2tolC; assay: MIC, spiral gradient endpoint assay, E. coli D21f2tolC; assay type: cell-based; conditions: Escherichia coli, D21F2TOLC, read-out: MIC E. coli D21f2toIC
[5] = tested on: Staphylococcus aureus ATCC 12600; assay: MIC, spiral gradient endpoint assay, S. aureus ATCC 12600; assay type: cell-based; conditions: ATCC12600; Staphylococcus aureus ATCC 12600
[6] = tested on: Mycobacterium tuberculosis H37Rv; assay: MIC, microplate Alamar Blue assay, M. tuberculosis; assay type: cell-based
[7] = target: S. aureus RNA polymerase core enzyme, S. aureus σ^A (Staphylococcus aureus, UniProt P47768+Q2G0N5); assay: Fluorescence-detected RNA polymerase assay, S. aureus RNA polymerase; assay type: biochemical; conditions: read-out: IC50 S. aureus RNAP
[8] = tested on: Brucella melitensis 16M; assay: microbe, parasite or virus in culture; assay type: cell-based; conditions: Brucella melitensis, 16M, read-out: MIC B. melitensis 16M
[9] = tested on: Francisella tularensis SCHU4; assay: microbe, parasite or virus in culture; assay type: cell-based; conditions: Francisella tularensis, SCHU4, read-out: MIC F. tularensis SCHU4
[10] = tested on: Bacillus anthracis Vollum 1b; assay: microbe, parasite or virus in culture; assay type: cell-based; conditions: Bacillus anthracis, VOLLUM1B, read-out: MIC B. anthracis Vollum-1b
[11] = tested on: Burkholderia pseudomallei Human/Blood/OH/US/1994; assay: microbe, parasite or virus in culture; assay type: cell-based; conditions: Burkholderia pseudomallei, read-out: MIC B. pseudomallei Human/Blood/OH
[12] = tested on: Burkholderia mallei CHN7; assay: microbe, parasite or virus in culture; assay type: cell-based; conditions: Burkholderia mallei, CHN7, read-out: MIC B. mallei CHN7
[13] = tested on: Yersinia pestis C092; assay: microbe, parasite or virus in culture; assay type: cell-based; conditions: Yersinia pestis, C092, read-out: MIC Y. pestis C092

Chain of M. tuberculosis RNA polymerase core enzyme, M. tuberculosis σ^A (P9WGI1 whole entry): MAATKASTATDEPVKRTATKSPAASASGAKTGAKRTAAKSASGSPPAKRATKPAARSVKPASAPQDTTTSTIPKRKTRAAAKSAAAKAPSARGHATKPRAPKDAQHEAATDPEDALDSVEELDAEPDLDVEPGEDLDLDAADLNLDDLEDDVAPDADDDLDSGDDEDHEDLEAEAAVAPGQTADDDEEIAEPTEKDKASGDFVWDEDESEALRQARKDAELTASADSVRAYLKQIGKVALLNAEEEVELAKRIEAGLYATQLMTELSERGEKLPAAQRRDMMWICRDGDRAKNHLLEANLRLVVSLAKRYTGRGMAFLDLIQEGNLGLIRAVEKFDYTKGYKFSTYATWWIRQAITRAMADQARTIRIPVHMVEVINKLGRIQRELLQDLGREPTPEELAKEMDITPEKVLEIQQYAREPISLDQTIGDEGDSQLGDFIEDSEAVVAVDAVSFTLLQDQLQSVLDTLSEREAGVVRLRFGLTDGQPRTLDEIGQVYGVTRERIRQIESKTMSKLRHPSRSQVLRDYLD
Chain of M. tuberculosis RNA polymerase core enzyme, M. tuberculosis σ^A (P9WGY5 whole entry, further chain): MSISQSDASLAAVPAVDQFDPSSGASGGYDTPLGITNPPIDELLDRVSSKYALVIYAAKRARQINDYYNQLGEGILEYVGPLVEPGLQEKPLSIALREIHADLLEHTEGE
Chain of M. tuberculosis RNA polymerase core enzyme, M. tuberculosis σ^A (P9WGY7 whole entry): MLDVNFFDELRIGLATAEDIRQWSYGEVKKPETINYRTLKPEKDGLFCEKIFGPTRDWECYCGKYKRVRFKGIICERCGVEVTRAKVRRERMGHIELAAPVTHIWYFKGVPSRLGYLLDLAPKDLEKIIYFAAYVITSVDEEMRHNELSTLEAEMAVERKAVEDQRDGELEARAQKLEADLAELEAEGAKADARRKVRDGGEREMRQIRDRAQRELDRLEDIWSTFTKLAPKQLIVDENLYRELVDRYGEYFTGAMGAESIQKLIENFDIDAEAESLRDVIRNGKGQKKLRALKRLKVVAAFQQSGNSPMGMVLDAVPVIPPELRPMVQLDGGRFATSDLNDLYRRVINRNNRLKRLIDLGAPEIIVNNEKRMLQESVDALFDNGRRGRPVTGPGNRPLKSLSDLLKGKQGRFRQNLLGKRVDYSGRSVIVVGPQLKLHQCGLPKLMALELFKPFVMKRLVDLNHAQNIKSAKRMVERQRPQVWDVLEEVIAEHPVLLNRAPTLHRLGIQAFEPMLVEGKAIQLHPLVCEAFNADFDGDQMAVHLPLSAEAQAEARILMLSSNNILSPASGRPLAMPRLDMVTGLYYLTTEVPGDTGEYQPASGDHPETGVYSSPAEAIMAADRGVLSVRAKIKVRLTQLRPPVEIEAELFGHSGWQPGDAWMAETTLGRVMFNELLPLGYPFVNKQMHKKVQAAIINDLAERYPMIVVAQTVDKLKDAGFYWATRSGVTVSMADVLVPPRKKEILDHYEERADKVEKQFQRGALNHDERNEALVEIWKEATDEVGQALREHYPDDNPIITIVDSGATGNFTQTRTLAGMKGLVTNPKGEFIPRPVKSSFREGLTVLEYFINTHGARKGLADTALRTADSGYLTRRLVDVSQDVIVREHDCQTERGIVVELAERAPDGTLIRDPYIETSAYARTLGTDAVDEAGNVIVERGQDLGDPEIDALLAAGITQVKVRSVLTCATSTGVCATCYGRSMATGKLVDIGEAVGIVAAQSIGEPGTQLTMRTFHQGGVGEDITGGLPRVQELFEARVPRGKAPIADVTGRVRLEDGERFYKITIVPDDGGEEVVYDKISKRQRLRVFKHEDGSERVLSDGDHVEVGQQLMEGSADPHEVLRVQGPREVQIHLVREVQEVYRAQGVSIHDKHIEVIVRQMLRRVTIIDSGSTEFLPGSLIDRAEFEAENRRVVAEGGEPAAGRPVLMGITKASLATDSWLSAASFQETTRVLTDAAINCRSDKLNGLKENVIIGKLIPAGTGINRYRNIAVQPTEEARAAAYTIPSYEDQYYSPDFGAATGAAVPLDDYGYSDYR
Chain of M. tuberculosis RNA polymerase core enzyme, M. tuberculosis σ^A (P9WGY9 whole entry): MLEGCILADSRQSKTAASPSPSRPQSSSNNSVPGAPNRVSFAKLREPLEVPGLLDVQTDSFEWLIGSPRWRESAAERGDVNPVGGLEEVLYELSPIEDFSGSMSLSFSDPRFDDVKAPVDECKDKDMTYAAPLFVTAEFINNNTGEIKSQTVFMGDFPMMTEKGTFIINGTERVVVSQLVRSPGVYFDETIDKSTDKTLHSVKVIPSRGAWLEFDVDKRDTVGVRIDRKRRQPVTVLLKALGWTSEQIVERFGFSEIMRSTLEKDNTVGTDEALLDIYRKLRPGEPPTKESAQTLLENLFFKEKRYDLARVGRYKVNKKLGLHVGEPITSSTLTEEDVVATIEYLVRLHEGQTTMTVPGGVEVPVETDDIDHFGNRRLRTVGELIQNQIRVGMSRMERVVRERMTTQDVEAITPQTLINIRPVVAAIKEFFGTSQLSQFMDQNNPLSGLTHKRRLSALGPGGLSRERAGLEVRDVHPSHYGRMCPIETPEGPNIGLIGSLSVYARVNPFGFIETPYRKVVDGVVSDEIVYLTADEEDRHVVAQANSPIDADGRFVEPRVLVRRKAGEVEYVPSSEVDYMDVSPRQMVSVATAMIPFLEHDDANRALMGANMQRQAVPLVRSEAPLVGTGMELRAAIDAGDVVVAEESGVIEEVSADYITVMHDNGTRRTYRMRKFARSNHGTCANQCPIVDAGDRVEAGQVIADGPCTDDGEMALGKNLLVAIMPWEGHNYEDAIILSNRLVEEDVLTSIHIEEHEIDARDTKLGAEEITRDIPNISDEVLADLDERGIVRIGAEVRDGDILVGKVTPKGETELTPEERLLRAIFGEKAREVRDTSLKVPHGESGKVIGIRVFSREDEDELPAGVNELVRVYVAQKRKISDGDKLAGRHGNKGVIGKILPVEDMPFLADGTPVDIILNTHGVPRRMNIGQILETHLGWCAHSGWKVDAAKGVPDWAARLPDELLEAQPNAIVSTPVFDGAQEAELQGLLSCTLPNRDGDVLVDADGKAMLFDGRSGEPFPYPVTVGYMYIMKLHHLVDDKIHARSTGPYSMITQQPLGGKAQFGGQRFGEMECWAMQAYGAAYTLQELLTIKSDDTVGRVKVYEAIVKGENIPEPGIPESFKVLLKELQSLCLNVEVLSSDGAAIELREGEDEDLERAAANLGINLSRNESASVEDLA
Chain of M. tuberculosis RNA polymerase core enzyme, M. tuberculosis σ^A (P9WGZ1 whole entry, further chain): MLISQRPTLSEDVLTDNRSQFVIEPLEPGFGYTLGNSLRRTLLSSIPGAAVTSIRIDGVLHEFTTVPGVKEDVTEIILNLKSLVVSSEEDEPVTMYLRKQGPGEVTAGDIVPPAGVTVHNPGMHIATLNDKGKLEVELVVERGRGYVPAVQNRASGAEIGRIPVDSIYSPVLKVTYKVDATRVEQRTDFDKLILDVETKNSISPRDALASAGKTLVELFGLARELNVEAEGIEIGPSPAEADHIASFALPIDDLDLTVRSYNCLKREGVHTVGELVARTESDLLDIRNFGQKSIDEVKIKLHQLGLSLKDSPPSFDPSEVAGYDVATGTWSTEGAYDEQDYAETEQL

SMILES	IC50 [1] [nM]	MIC [2] [µg/mL]	IC50 [3] [nM]	MIC [4] [µg/mL]	MIC [5] [µg/mL]	MIC [6] [µg/mL]	IC50 [7] [nM]	MIC [8] [µg/mL]	MIC [9] [µg/mL]	MIC [10] [µg/mL]	MIC [11] [µg/mL]	MIC [12] [µg/mL]	MIC [13] [µg/mL]
COC(=O)N/C=C/CCC(C)c1cc(O)c(C(=O)C(C)=Cc2ccc(OC)s2)c(=O)o1 (mixture of isomers) [APY101, methyl ((1E)-5-(4-hydroxy-3-(3-(5-methoxythiophen-2-yl)-2-methylacryloyl)-2-oxo-2H-pyran-6-yl)hex-1-en-1-yl)carbamate]	> 6000	> 40	> 6000	3	> 40	–	–	–	–	–	–	–	–
CCCOc1ccc(C=C(C)C(=O)c2c(O)cc(C(C)CC/C=C/NC(=O)OC)oc2=O)s1 (mixture of isomers) [APY103, methyl ((1E)-5-(4-hydroxy-3-(2-methyl-3-(5-propoxythiophen-2-yl)acryloyl)-2-oxo-2H-pyran-6-yl)hex-1-en-1-yl)carbamate]	20	> 40	20	0.4	2	30	–	–	–	–	–	–	–
CCCCc1ccc2cc(C=C(C)C(=O)c3c(O)cc(C(C)CC/C=C/NC(=O)OC)oc3=O)oc2c1 (mixture of isomers) [APY84, methyl ((1E)-5-(3-(3-(6-butylbenzofuran-2-yl)-2-methylacryloyl)-4-hydroxy-2-oxo-2H-pyran-6-yl)hex-1-en-1-yl)carbamate]	20	> 40	2	0.1	3	30	60	–	–	–	–	–	–
COC(=O)N/C=C/CCC(C)c1cc(O)c(C(=O)C(C)=Cc2sc(CCC(C)C)cc2C)c(=O)o1 (mixture of isomers) [APY76, methyl (E)-5-(3-((E/Z)-3-(5-isopentyl-3-methylthiophen-2-yl)-2-methylacryloyl)-4-hydroxy-2-oxo-2H-pyran-6-yl)hex-1-enylcarbamate]	50	4	3	0.09	0.2	30	80	3	10	0.4	6	6	–
CCOc1ccc(C=C(C)C(=O)c2c(O)cc(C(C)CC/C=C/NC(=O)OC)oc2=O)s1 (mixture of isomers) [APY102, methyl ((1E)-5-(3-(3-(5-ethoxythiophen-2-yl)-2-methylacryloyl)-4-hydroxy-2-oxo-2H-pyran-6-yl)hex-1-en-1-yl)carbamate]	500	> 40	200	1	10	30	–	–	–	–	–	–	–
COCCCc1ccc(C=C(C)C(=O)c2c(O)cc(C(C)CC/C=C/NC(=O)OC)oc2=O)s1 (mixture of isomers) [APY100, methyl ((1E)-5-(4-hydroxy-3-(3-(5-(3-methoxypropyl)thiophen-2-yl)-2-methylacryloyl)-2-oxo-2H-pyran-6-yl)hex-1-en-1-yl)carbamate]	1000	> 40	60	1	> 40	–	–	–	–	–	–	–	–
COC(=O)N/C=C/CCC(C)c1cc(O)c(C(=O)C(C)=Cc2ccc(CCCO)s2)c(=O)o1 (mixture of isomers) [APY94, methyl ((1E)-5-(4-hydroxy-3-(3-(5-(3-hydroxypropyl)thiophen-2-yl)-2-methylacryloyl)-2-oxo-2H-pyran-6-yl)hex-1-en-1-yl)carbamate]	> 6000	> 40	> 6000	3	> 40	–	–	–	–	–	–	–	–
CCCCc1ccc(C=C(C)C(=O)c2c(O)cc(C(C)CC/C=C/NC(=O)OC)oc2=O)c(C)c1 (mixture of isomers) [APY87, methyl ((1E)-5-(3-(3-(4-butyl-2-methylphenyl)-2-methylacryloyl)-4-hydroxy-2-oxo-2H-pyran-6-yl)hex-1-en-1-yl)carbamate]	30	> 40	10	0.2	1	> 50	70	–	–	–	–	–	–
CCCCc1ccc2cc(C=C(C)C(=O)c3c(O)cc(C(C)CC/C=C/NC(=O)OC)oc3=O)sc2c1 (mixture of isomers) [APY86, methyl ((1E)-5-(3-(3-(6-butylbenzo[b]thiophen-2-yl)-2-methylacryloyl)-4-hydroxy-2-oxo-2H-pyran-6-yl)hex-1-en-1-yl)carbamate]	1000	> 40	20	0.2	> 40	> 50	300	–	–	–	–	–	–
COC(=O)N/C=C/CCC(C)c1cc(O)c(C(=O)C(C)=Cc2ccc(CCCCC(F)(F)F)s2)c(=O)o1 (mixture of isomers) [APY98, methyl ((1E)-5-(4-hydroxy-3-(2-methyl-3-(5-(5,5,5-trifluoropentyl)thiophen-2-yl)acryloyl)-2-oxo-2H-pyran-6-yl)hex-1-en-1-yl)carbamate]	40	20	6	0.1	1	50	–	–	–	–	–	–	–
COCc1ccc(C=C(C)C(=O)c2c(O)cc(C(C)CC/C=C/NC(=O)OC)oc2=O)s1 (mixture of isomers) [APY106, methyl ((1E)-5-(4-hydroxy-3-(3-(5-(methoxymethyl)thiophen-2-yl)-2-methylacryloyl)-2-oxo-2H-pyran-6-yl)hex-1-en-1-yl)carbamate]	4000	> 40	500	3	> 40	–	–	–	–	–	–	–	–
CCCCc1ccc2c(c1)cc(C=C(C)C(=O)c1c(O)cc(C(C)CC/C=C/NC(=O)OC)oc1=O)n2C (mixture of isomers) [APY104, methyl ((1E)-5-(3-(3-(5-butyl-1-methyl-1H-indol-2-yl)-2-methylacryloyl)-4-hydroxy-2-oxo-2H-pyran-6-yl)hex-1-en-1-yl)carbamate]	200	9	8	0.1	5	> 50	–	–	–	–	–	–	–
COC(=O)N/C=C/CCC(C)c1cc(O)c(C(=O)C(C)=Cc2ccc(CCCCCF)s2)c(=O)o1 (stereo not shown) [APY97, methyl ((1E)-5-(3-(3-(5-(5-fluoropentyl)thiophen-2-yl)-2-methylacryloyl)-4-hydroxy-2-oxo-2H-pyran-6-yl)hex-1-en-1-yl)carbamate]	–	> 40	20	0.1 (≈ 0.198 µM)	2 (≈ 3.96 µM)	> 50	400	–	–	–	–	–	–
CCCCc1ccc(C=CC(=O)c2c(O)cc(C(C)CC/C=C/NC(=O)OC)oc2=O)s1 (mixture of isomers) [APY36, methyl (E)-5-(3-((E/Z)-3-(5-butylthiophen-2-yl)acryloyl)-4-hydroxy-2-oxo-2H-pyran-6-yl)hex-1-enylcarbamate]	–	> 40	300	0.7	> 40	30	–	> 50	6	6	> 50	> 50	> 50
COC(=O)N/C=C/CCC(C)c1cc(O)c(C(=O)C(C)=Cc2cc3cc(CCC(C)C)ccc3n2C)c(=O)o1 (mixture of isomers) [APY105, methyl ((1E)-5-(4-hydroxy-3-(3-(5-isopentyl-1-methyl-1H-indol-2-yl)-2-methylacryloyl)-2-oxo-2H-pyran-6-yl)hex-1-en-1-yl)carbamate]	5000	> 40	40	2	> 40	–	–	–	–	–	–	–	–
COC(=O)N/C=C/CCC(C)c1cc(O)c(C(=O)C(C)=Cc2ccc(OCCC(F)(F)F)cc2)c(=O)o1 (mixture of isomers) [APY126, methyl ((1E)-5-(4-hydroxy-3-(2-methyl-3-(4-(3,3,3-trifluoropropoxy)phenyl)acryloyl)-2-oxo-2H-pyran-6-yl)hex-1-en-1-yl)carbamate]	–	> 40	80	0.3	1	6	–	10	> 50	3	> 50	50	30
COC(=O)N/C=C/CCC(C)c1cc(O)c(C(=O)C(C)=Cc2ccc(OCC(F)(F)F)cc2)c(=O)o1 (mixture of isomers) [APY117, methyl ((1E)-5-(4-hydroxy-3-(2-methyl-3-(4-(2,2,2-trifluoroethoxy)phenyl)acryloyl)-2-oxo-2H-pyran-6-yl)hex-1-en-1-yl)carbamate]	–	> 40	100	0.4	2	10	–	10	> 50	10	> 50	50	50

From patent US9592221B2, “Antibacterial agents: aryl myxopyronin derivatives” (priority 2012, dated 2017)
